Experimental data from BindingDB's records for doi:10.1016/j.bmcl.2015.06.011 (Al-Zaytoonah University of Jordan, 2015).

How the values were obtained:
[1] = Inhibition of PI3Kalpha in human HCT116 cells assessed as cell growth inhibition after 24 hrs by MTT assay
[2] = Inhibition of PI3Kalpha H1047R mutant in human HCT116 cells assessed as cell growth inhibition after 24 hrs by MTT assay

Row | Structure (SMILES) | IC50 [1] [µM] | IC50 [2] [µM]
1 | O=C(OC(C(=O)c1ccccc1)c1ccccc1)c1cccc(F)c1 (stereo not drawn) | 970 | 970
2 | O=C(OC(C(=O)c1ccccc1)c1ccccc1)c1ccc([N+](=O)[O-])cc1 (stereo not drawn) | 880 | 880
3 | COc1ccc(C(=O)C(OC(=O)c2ccc(F)cc2)c2ccc(OC)cc2)cc1 (stereo not drawn) | 2820 | 2820
4 | O=C(OC(C(=O)c1ccccc1)c1ccccc1)c1ccc(Cl)cc1 (stereo not drawn) | 730 | 730
5 | O=C(OC(C(=O)c1ccccc1)c1ccccc1)c1ccc(F)cc1 (stereo not drawn) | 1290 | 1290
6 | O=C(c1ccccc1)C(O)c1ccccc1 (stereo not drawn) | 2120 | 2120
7 | O=C(OC(C(=O)c1ccccc1)c1ccccc1)c1ccccc1F (stereo not drawn) | 910 | 910
8 | O=C(OC(C(=O)c1ccccc1)c1ccccc1)c1ccccc1 (stereo not drawn) | 2660 | 2660
9 | COc1ccc(C(=O)C(O)c2ccc(OC)cc2)cc1 (stereo not drawn) [2-hydroxy-1,2-bis(4-methoxyphenyl)ethan-1-one] | 1170 | 1170
